Converted amounts (≈) assume the structure as drawn. Read-outs that look alike come from different tables or passages of the source.
Columns and labels:
[1] = tested on: V. cholerae wildtype; design: species or system mice; settings: mouse, in vivo
[2] = tested on: V. cholerae O395; experiment: microbe, parasite or virus in culture; format: cell-based; settings: for effect on growth of V. cholerae: 50 μM, midlogarithmic phase (8 h), LB medium; for MIC50: 8 h
[3] = biological target: V. cholerae NQR complex (Vibrio cholerae serotype O1, UniProt Q9KPS2+Q9X4Q6); experiment: biochemical; settings: read-out: inhibition of the ubiquinone reductase activity
[4] = tested on: V. cholerae O395; experiment: In vitro infection of T84 human intestinal cells, CFU of adherent and planktonic bacteria; format: cell-based; settings: Vibrio cholerae
[5] = tested on: NDH-2; format: biochemical; settings: 50 μM
[6] = tested on: NDH-2; format: biochemical; settings: 50 μM; remark: listed apart in the source
[7] = tested on: terminal oxidases; format: biochemical; settings: 50 μM inhibitor, 50 μM UQ-1
[8] = cited from earlier work
[9] = tested on: cholera toxin; experiment: microbe, parasite or virus in culture; format: cell-based, Vibrio cholerae
[10] = tested on: wildtype V. cholerae membranes; format: biochemical; settings: 50 μM
[11] = tested on: NADH dehydrogenases of V. cholerae membranes; format: biochemical; settings: 50 μM, 200 μM NADH
[12] = tested on: V. cholerae 2012EL-2176; experiment: microbe, parasite or virus in culture; format: cell-based; settings: Vibrio cholerae
[13] = tested on: V. cholerae 2010EL-1786; experiment: microbe, parasite or virus in culture; format: cell-based; settings: Vibrio cholerae
[14] = single oral dose 25 mg/kg, M. tuberculosis infection model ref 31; cited from earlier work
[15] = human

CC1(C)S[C@@H]2[C@H](NC(=O)[C@H](N)c3ccccc3)C(=O)N2[C@H]1C(=O)O [ampicillin]
survival of infected mice [1]: almost twice

CN(C)CCCN1c2ccccc2Sc2ccc(Cl)cc21 [chlorpromazine]
effect on growth of V. cholerae [2]: antimicrobial properties | inhibition at 50 µM [3]: 20 to 40%

CC(C)/N=c1\cc2n(-c3ccc(Cl)cc3)c3ccccc3nc-2cc1Nc1ccc(Cl)cc1 [clofazimine]
inhibition at 30 µM ([4]; O395, T84, read-out: inhibition of the number of attached cells): > 75% | inhibition at 30 µM ([4]; O395, T84, read-out: inhibition of the number of planktonic cells): > 90% | effect on growth of V. cholerae [2]: strong inhibitory effects | MIC ([2]; Vibrio cholerae): 5 µM (≈ 2.37 µg/mL) | MIC50 ([2]; Vibrio cholerae): 3.4 ± 0.2 µM (≈ 1.61 µg/mL) | inhibition at 50 µM [3]: 95% | sensitivity of NADH-dependent ubiquinol reductase activity of Δnqr membranes [5]: insensitive | inhibition of NDH-2 activity in membranes [6]: insensitive | respiratory activity with ubiquinol-1 [7]: not sensitive | concentration in plasma [8]: submicromolar range | survival of infected mice [1]: to the same extent as ampicillin | inhibition of cholera toxin production ([9]; 30 µM): 92% | inhibition at 30 µM ([9]; Vibrio cholerae, read-out: inhibition of cholera toxin production): 95% | sensitivity of activity of wildtype membranes [10]: sensitive | inhibition of respiratory activity with NADH [11]: strong inhibitors | MIC [12]: 16 µM (≈ 7.57 µg/mL) | MIC [13]: 16 µM (≈ 7.57 µg/mL) | peak serum concentration [14]: 0.43 µg/mL | estimated concentration that can reach the proximal section of the small intestine [15]: around 150 μM

OCCN1CCN(CCCN2c3ccccc3Sc3ccc(Cl)cc32)CC1 [perphenazine]
inhibition at 50 µM ([3]; 50 μM): 20 to 40%

CN1CCN(CCCN2c3ccccc3Sc3ccc(Cl)cc32)CC1 [prochlorperazine]
effect on growth of V. cholerae [2]: strong inhibitory effects | MIC50 ([2]; Vibrio cholerae): 24 ± 3 µM (≈ 8.97 µg/mL)

CC(CN1c2ccccc2Sc2ccccc21)N(C)C (centres unmarked) [promethazine]
inhibition at 50 µM ([3]; 50 μM): 20 to 40%

CSc1ccc2c(c1)N(CCC1CCCCN1C)c1ccccc1S2 (centres unmarked) [thioridazine]
effect on growth of V. cholerae [2]: strong inhibitory effects | MIC50 ([2]; Vibrio cholerae): 27 ± 2 µM (≈ 10 µg/mL) | inhibition of NDH-2 activity in membranes [6]: insensitive | respiratory activity with ubiquinol-1 [7]: not sensitive | inhibition of respiratory activity with NADH [11]: strong inhibitors

CN1CCN(CCCN2c3ccccc3Sc3ccc(C(F)(F)F)cc32)CC1 [trifluoperazine]
inhibition at 50 µM ([3]; 50 μM): 20 to 40%
